The source of these data is paper PMC5942844, “Identification and characterization of the Fasciola hepatica sodium- and chloride-dependent taurine transporter” (PLoS Neglected Tropical Diseases, 2018).

Where two headings read alike, the source gives them in different places.

The term EC50 denotes the midpoint of the concentration-response curve. In general, IC50 refers to the point on the concentration scale where inhibition reaches its midpoint. A word on the Km: it is the substrate concentration at which the rate is half of its maximum.

In data set [1] the target is T1, F. hepatica taurine transporter (FhTauT) (Fasciola hepatica, UniProt A0A2R4LGM2).
T1 sequence (A0A2R4LGM2 1-647): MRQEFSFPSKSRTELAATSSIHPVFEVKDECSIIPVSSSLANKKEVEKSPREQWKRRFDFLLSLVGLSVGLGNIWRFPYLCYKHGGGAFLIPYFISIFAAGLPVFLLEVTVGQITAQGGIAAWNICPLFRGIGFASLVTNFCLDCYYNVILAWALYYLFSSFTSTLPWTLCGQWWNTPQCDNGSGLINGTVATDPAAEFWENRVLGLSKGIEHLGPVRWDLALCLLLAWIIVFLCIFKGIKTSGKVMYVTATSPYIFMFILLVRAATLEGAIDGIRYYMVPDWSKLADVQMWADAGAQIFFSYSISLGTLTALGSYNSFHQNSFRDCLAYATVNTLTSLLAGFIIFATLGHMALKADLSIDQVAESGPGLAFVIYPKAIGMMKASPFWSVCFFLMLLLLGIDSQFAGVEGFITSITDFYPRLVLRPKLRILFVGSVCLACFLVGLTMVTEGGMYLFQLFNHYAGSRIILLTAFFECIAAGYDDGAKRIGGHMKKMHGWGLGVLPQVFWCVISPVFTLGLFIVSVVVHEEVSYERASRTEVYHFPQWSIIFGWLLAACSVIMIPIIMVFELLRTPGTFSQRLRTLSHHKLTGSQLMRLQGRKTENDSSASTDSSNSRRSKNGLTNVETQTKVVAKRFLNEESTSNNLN
As to the kind of experiment: cell-based. As to conditions: for EC50: 0.1 μM [3H]taurine; for IC50: IC50 of unlabeled taurine for [3H]taurine uptake; for inhibition of the transporter (taurine uptake): inhibitors of GABA uptake or GABA degradation. The protocol:
(§1) Human embryonic kidney-293 (HEK293 (ATCC CRL-1573, LGC standards Wesel, Germany)) cells, were grown in Dulbecco`s modified Eagle medium (DMEM) supplemented with 10% fetal bovine serum (FCS Nuaille, France), 100 units/ml penicillin and 100 μg/ml streptomycin at 37°C and with 5% CO2 in a humidified incubator. Cells were transfected with plasmids encoding fluorescently tagged or untagged versions of F. hepatica (FhTauT) and H. sapiens (HsTauT) taurine transporter using Jet Prime transfection reagent (Polyplus-transfection, France). To generate monoclonal cell lines stably expressing the transporters, transfected cells were subjected to and selected with the concentration of 0.2 mg/ml geneticin (G418) for 10 days. Surviving cells forming colonies were separated and analyzed for membrane localization of transporters and transport of taurine. After the selection process cells were kept at 50 μg/ml G418 to keep the selection pressure.
(§2) For saturation uptake experiments, cells were plated the day before the experiment at a density of about 50,000 cells/well onto poly (D-lysine)-coated 48-well culture plates (CytoOne, USA). On the day of the experiment, cells were washed with prewarmed Krebs-HEPES buffer twice (KHB) (120 mM NaCl, 3 mM KCl, 2 mM CaCl2, 2 mM MgCl2, 20 mM glucose, 10 mM HEPES, pH 7.3). Then, cells were incubated in KHB containing tracer amounts (0.1 μM) of [^3H]taurine, (19.1 Ci/mmol) (Perkin Elmer, USA) together with increasing concentrations of non-labeled taurine 10 min. The reaction was terminated after 10 minutes by removing the medium followed by rapid rinsing of cells with ice-cold assay buffer. Subsequently, cells were lysed with 0.5 ml of 1% sodium dodecyl sulfate (SDS) and transferred into scintillation vials for liquid scintillation counting. Non-specific uptake was determined by incubating cells in the presence of the blocker β-alanine (100 mM) before and during the experiment and subtracted from uptake values. Data were fit to a Michaelis-Menten equation.
(§3) Chloride-free KHB was prepared to examine the chloride dependence of both, FhTauT and HsTauT using acetate salts instead of chloride salts. Likewise, NaCl was replaced by choline chloride to examine the sodium requirement. Uptake experiments were performed as described above using 0.1 μM [^3H]taurine in sodium- and chloride-free modified KHB, respectively, mixed with increasing amounts of NaCl containing KHB thereby varying Na^+ and respectively Cl^- concentration from 0–120 mM. The inhibition experiments were performed in analogous manner with 0.1 μM [^3H]taurine and the logarithmically spaced concentrations of inhibitors.

In data set [2] the test system is adult F. hepatica. Format: cell-based. As to conditions: for time all flukes alive and motile: Hédon-Fleig medium; for survival of flukes: 4 h. The protocol:
Fig 8 Survival of adult F. hepatica in bile acid-containing medium in the presence and absence of taurine. A: Adult flukes (12 flukes/condition in individual wells) were incubated at 37°C and 5% CO2 in a humidified atmosphere in Hédon Feig medium in the absence (control, closed circles) or presence of 50 μM taurine (closed circle), of 2 mM GES (GES, closed triangle) or of bile acids (closed triangle, 5 mM cholic acid, 1.5 mM deoxycholic acid and 0.5 mM chenodeoxycholic acid). The number of dead flukes was recorded at the indicated time points. B: Adult flukes were incubated at 37°C and 5% CO2 in a humidified atmosphere in Hédon Feig medium in the absence (control) or presence of bile acids (5 mM cholic acid, 1.5 mM deoxycholic acid and 0.5 mM chenodeoxycholic acid). Where indicated, the medium contained, in addition, 50 μM taurine or the combination of 50 μM taurine and 2 mM GES (GES) for 4h. The number of dead flukes was recorded at the end of the incubation period. The data are from three independent experiments with 11 to 12 flukes/condition. […] Thus, after Bonferroni correction for multiple testing (with α≤0.016), taurine afforded a statistically significant protection against bile acids.
F. hepatica was isolated from the bile ducts of cows slaughtered at Alpenrind GmbH (Salzburg, Austria). Flukes were kept in modified Hedon Fleig`s solution at 37°C and 5% CO2 in a humidified atmosphere. Before the experiment, flukes were maintained at 37°C for three days after extraction to clear them from bile acids. Living flukes (judged by observing movement after gently tapping them with metal forceps) were transferred into flasks containing either Hedon Fleig`s Solution alone or Hedon Fleig`s Solution supplemented with combinations of bile acids (5 mM cholic acid (CA), 1.5 mM deoxycholic acid (DCA) and […] chenodeoxycholic acid (CDC)), 50 μM taurine and 2 mM guanidinoethyl sulfonate (GES). Survival of flukes was determined again after four hours of treatment.

For data set [3], the target named is T2, human taurine transporter (HsTauT) (Homo sapiens, UniProt P31641).
T2 sequence (P31641 1-620): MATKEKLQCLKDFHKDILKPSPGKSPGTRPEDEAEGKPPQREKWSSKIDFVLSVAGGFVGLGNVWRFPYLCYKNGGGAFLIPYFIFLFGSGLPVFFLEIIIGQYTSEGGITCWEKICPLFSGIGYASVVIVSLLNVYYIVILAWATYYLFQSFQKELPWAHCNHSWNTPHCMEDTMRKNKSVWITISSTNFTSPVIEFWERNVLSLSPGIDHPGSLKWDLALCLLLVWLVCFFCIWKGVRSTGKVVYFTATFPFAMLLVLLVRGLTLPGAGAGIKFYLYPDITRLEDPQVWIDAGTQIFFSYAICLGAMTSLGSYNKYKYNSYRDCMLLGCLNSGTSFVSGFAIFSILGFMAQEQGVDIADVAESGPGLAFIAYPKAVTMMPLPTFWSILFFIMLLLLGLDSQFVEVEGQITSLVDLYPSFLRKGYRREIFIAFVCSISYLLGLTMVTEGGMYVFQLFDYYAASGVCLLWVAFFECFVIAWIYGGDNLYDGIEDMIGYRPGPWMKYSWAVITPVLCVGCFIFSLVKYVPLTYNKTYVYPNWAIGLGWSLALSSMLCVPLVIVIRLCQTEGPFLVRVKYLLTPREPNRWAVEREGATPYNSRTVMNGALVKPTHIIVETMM
As to the kind of experiment: [3H]taurine uptake by HEK293 cells stably expressing the human taurine transporter. As to conditions: for EC50: 0.1 μM [3H]taurine; for IC50: IC50 of unlabeled taurine for [3H]taurine uptake. Here is the method:
as §1, §2, §3

Substrate in data set [4]: NCCS(=O)(=O)O
As to the kind of experiment: cells, lysate or membranes. The note with it: other: 10 min uptake, HEK293 cells; pH 7.3; 37.0 °C.

Setting [5] is: HEK293, read-out: residual [3H]taurine uptake.
Where [6] appears, read: read-out: EC50 of Na+ for half-maximum stimulation of transport, sodium replaced with choline.
[7] abbreviates: read-out: EC50 of chloride for substrate uptake (apparent affinity), chloride replaced with acetate.
Where [8] appears, read: read-out: EC50 of chloride for substrate uptake (apparent affinity), chloride replaced with acetate, listed as Cl^-.

As for `NC(N)=NCCS(=O)(=O)O` [GES, guanidinoethyl sulfonate], the “mode of inhibition of taurine uptake” value in data set [1] (Dixon plot, intersecting lines) is on record as “non-competitive inhibitor”. Further, in data set [1] (setting [5]), the remaining activity at 1000 µM is around 75% and the remaining activity at 3000 µM is around 40%. In data set [1] (comparison of residual uptake, Fig 6A vs 6C), the “affinity of F. hepatica transporter relative to human transporter” value is on record as “about ten-fold lower”. Besides, the “time all flukes alive and motile” value in data set [2] (2 mM GES alone) is “at least 6 h”. Also, the survival of flukes in data set [2] (bile acids plus 50 μM taurine plus 2 mM GES) was determined as 44%. Further, in data set [3] (Dixon plot, parallel lines), the “mode of inhibition of taurine uptake” value was “competitive inhibition”.
As to `[Na+]` [Na^+], the figures for the EC50 in data set [1] (setting [6]) and in data set [3] (setting [6]) were 51.4 ± 6 mM and 56.5 ± 7.1 mM, respectively. Moreover, the “Hill coefficient of sodium saturation curve” value in data set [1] (sodium replaced with choline) came to 1.6±0.1; in data set [3] (sodium replaced with choline) it was 2.3±0.1.
For the molecule `Cl` [chloride], the EC50 in data set [1] (setting [7]) is 13.9 ± 3.1 mM; in data set [1] (setting [8]), 14 ± 3 mM; in data set [3] (setting [7]), 54.8 ± 6.9 mM; in data set [3] (setting [8]) it was 55 ± 7 mM.
As for `NCCS(=O)(=O)O` [taurine, 2-aminoethanesulfonic acid], the IC50 in data set [1] (absence of GES) is 11.7 ± 4.1 µM; in data set [1] (presence of 1 mM GES) it was 18.7 ± 6.7 µM; in data set [1] (presence of 3 mM GES), 16 ± 4.2 µM; in data set [3] (absence of GES), 41.2 ± 8.2 µM; in data set [3] (presence of 0.1 mM GES), 52.1 ± 9.5 µM; in data set [3] (presence of 0.3 mM GES), 98.9 ± 20.1 µM. Also, the “maximum velocity of uptake” value in data set [1] ([3H]taurine, HEK293 cells) is recorded as 178 ± 2 pmol*10^−6 cells*min^-1; in data set [3] ([3H]taurine, HEK293 cells) it was 971.0 ± 60.3 pmol*10^−6 cells*min^-1. Also, the “[3H]taurine accumulation relative to untransfected control cells” value in data set [1] (transfected vs untransfected HEK293 cells) is recorded as “about 10 fold”. In data set [2] (50 μM taurine alone), the “time all flukes alive and motile” value is listed as “at least 6 h”. Also, the survival of flukes result in data set [2] (bile acids plus 50 μM taurine) is reported as “about 80%”.
Turning to `Cc1ccsc1C(=CCCN1CCC[C@@H](C(=O)O)C1)c1sccc1C` [tiagabine], the “inhibition of the transporter (taurine uptake)” value in data set [1] is listed as “failed to inhibit”.
With `C=CC(N)CCC(=O)O` (stereo not drawn) [vigabatrin], the “inhibition of the transporter (taurine uptake)” value in data set [1] is “failed to inhibit”.

B1: human taurine transporter (HsTauT) (Homo sapiens) (protein)
chain: MATKEKLQCLKDFHKDILKPSPGKSPGTRPEDEAEGKPPQREKWSSKIDFVLSVAGGFVGLGNVWRFPYLCYKNGGGAFLIPYFIFLFGSGLPVFFLEIIIGQYTSEGGITCWEKICPLFSGIGYASVVIVSLLNVYYIVILAWATYYLFQSFQKELPWAHCNHSWNTPHCMEDTMRKNKSVWITISSTNFTSPVIEFWERNVLSLSPGIDHPGSLKWDLALCLLLVWLVCFFCIWKGVRSTGKVVYFTATFPFAMLLVLLVRGLTLPGAGAGIKFYLYPDITRLEDPQVWIDAGTQIFFSYAICLGAMTSLGSYNKYKYNSYRDCMLLGCLNSGTSFVSGFAIFSILGFMAQEQGVDIADVAESGPGLAFIAYPKAVTMMPLPTFWSILFFIMLLLLGLDSQFVEVEGQITSLVDLYPSFLRKGYRREIFIAFVCSISYLLGLTMVTEGGMYVFQLFDYYAASGVCLLWVAFFECFVIAWIYGGDNLYDGIEDMIGYRPGPWMKYSWAVITPVLCVGCFIFSLVKYVPLTYNKTYVYPNWAIGLGWSLALSSMLCVPLVIVIRLCQTEGPFLVRVKYLLTPREPNRWAVEREGATPYNSRTVMNGALVKPTHIIVETMM
As for B1, the Km in data set [4] was 41.0 ± 10.4 µM.

B2: F. hepatica taurine transporter (FhTauT) (Fasciola hepatica) (protein)
chain: MRQEFSFPSKSRTELAATSSIHPVFEVKDECSIIPVSSSLANKKEVEKSPREQWKRRFDFLLSLVGLSVGLGNIWRFPYLCYKHGGGAFLIPYFISIFAAGLPVFLLEVTVGQITAQGGIAAWNICPLFRGIGFASLVTNFCLDCYYNVILAWALYYLFSSFTSTLPWTLCGQWWNTPQCDNGSGLINGTVATDPAAEFWENRVLGLSKGIEHLGPVRWDLALCLLLAWIIVFLCIFKGIKTSGKVMYVTATSPYIFMFILLVRAATLEGAIDGIRYYMVPDWSKLADVQMWADAGAQIFFSYSISLGTLTALGSYNSFHQNSFRDCLAYATVNTLTSLLAGFIIFATLGHMALKADLSIDQVAESGPGLAFVIYPKAIGMMKASPFWSVCFFLMLLLLGIDSQFAGVEGFITSITDFYPRLVLRPKLRILFVGSVCLACFLVGLTMVTEGGMYLFQLFNHYAGSRIILLTAFFECIAAGYDDGAKRIGGHMKKMHGWGLGVLPQVFWCVISPVFTLGLFIVSVVVHEEVSYERASRTEVYHFPQWSIIFGWLLAACSVIMIPIIMVFELLRTPGTFSQRLRTLSHHKLTGSQLMRLQGRKTENDSSASTDSSNSRRSKNGLTNVETQTKVVAKRFLNEESTSNNLN
Take B2: the Km in data set [4] turned out to be 12.0 ± 0.5 µM.
